Entries after “also recorded” stand apart in the source; their conditions may differ. Read-outs that look alike come from different tables or passages of the source.
Legend:
[1] = target: T1, JMJD2E (Homo sapiens, UniProt B2RXH2); settings: King et al., 2010; cited from earlier work
T1 sequence (B2RXH2 1-337 limits assumed): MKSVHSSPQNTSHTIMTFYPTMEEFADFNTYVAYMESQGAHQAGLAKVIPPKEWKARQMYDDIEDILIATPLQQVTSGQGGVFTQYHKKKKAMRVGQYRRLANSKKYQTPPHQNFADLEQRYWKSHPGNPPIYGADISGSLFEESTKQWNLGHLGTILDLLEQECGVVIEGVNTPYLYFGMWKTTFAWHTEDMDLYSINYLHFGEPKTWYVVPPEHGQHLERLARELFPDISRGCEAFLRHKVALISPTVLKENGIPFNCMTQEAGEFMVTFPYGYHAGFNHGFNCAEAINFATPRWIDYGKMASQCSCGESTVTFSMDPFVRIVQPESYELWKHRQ

[2] = target: T2, JARID1C (Homo sapiens, UniProt P41229); experiment: FLAG-JARID1C histone demethylase assay with AlphaScreen detection; format: biochemical
T2 construct: FLAG (N); made in house; host or cells: Sf21 insect cells (baculovirus)
T2 sequence (P41229 whole entry): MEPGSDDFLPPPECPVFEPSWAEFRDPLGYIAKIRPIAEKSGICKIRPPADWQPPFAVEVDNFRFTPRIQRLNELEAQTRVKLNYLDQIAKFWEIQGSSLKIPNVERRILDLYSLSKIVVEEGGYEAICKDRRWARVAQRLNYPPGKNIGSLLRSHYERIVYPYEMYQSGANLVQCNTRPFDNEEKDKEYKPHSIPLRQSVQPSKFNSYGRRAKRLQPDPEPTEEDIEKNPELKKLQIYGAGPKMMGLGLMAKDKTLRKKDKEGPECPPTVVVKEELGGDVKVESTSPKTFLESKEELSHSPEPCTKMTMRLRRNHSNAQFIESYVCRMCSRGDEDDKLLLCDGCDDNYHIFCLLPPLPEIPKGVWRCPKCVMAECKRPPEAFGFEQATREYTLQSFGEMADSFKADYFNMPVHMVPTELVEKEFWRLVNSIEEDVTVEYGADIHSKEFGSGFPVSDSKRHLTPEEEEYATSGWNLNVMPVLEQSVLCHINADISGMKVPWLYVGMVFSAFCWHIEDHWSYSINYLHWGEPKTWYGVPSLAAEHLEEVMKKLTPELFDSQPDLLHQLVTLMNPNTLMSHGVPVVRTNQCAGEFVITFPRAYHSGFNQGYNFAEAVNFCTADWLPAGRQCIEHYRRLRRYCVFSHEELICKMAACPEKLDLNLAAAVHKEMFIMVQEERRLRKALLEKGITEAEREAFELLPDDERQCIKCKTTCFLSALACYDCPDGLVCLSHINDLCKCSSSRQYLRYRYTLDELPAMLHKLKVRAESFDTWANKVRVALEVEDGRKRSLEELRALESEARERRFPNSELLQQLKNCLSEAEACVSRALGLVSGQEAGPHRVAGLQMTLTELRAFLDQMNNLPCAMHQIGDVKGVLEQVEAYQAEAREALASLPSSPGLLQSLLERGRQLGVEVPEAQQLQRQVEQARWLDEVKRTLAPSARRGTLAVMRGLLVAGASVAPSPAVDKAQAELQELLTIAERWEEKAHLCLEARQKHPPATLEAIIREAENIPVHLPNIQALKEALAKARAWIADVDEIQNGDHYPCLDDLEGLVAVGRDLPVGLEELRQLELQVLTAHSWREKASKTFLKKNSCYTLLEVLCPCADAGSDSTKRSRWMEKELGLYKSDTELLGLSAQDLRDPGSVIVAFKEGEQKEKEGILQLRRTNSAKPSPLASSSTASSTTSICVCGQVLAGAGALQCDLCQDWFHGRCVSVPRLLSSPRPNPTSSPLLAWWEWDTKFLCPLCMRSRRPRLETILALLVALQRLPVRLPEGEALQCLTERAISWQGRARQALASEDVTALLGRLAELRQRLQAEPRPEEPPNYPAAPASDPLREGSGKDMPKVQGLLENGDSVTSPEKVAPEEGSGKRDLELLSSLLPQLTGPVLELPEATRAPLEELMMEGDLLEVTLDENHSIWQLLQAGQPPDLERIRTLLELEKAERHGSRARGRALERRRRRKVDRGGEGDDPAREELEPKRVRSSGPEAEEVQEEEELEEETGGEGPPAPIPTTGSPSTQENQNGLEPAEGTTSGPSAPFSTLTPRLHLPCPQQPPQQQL
Experimental: Histone demethylase assays were performed in 384 well white plates (Corning 3574). Demethylase buffer conditions for FLAG-JARID1B were as follows: 10 μM α-KG, 100 μM ascorbate, 50 μM (NH4)2Fe(SO4)2, 50 mM Hepes (pH 7.5), 0.01% (v/v) Tween 20, and 0.1% (w/v) bovine serum albumin. The demethylase reactions included 64 nM bio-H3K4me3 peptide alone or in the presence of 4 nM FLAG-JARID1B enzyme in a 10 μl reaction at 25° C. for 30 minutes. As a positive control, 64 nM bio-H3K4me2 peptide was assayed in the absence of enzyme. Assay conditions for FLAG-JARID1C is the same as for FLAG-JARID1B except that 20 nM enzyme was used. For FLAG-JARID1A, the demethylase buffer was similar to FLAG-JARID1B, except that 125 μM α-KG and 13 nM FLAG-JARID1A enzyme were used. The His-FLAG-UTX and FLAG-JMJD3 demethylase assays also employed the same buffer conditions as for FLAG-JARID1B, with 64 nM bio-H3K27me3 peptide assayed with or without 25 nM His-FLAG-UTX enzyme or 50 nM FLAG-JMJD3 (BPS Bioscience, 50115), and 64 nM bio-H3K27me2 peptide as a positive control. JARID1A, JARID1C, UTX, and JMJD3 histone demethylase assays proceeded at 37° C. for 1 hour.
The AlphaScreen General IgG (Protein A) detection kit was obtained from PerkinElmer. Demethylated H3K4 products were detected using AlphaScreen antibody/bead mix containing 7.5 mM ethylenediaminetetraacetic acid (EDTA) and 0.15 μg/ml anti-H3K4me1 antibody in a final volume of 20 μl. For detection of demethylated H3K27 products, the AlphaScreen antibody/bead mix containing 7.5 mM EDTA and 0.15 μg/ml anti-H3K27me2 antibody in a final volume of 20 μl. The luminescence signal was measured using the Envision (PerkinElmer) or Pherastar (BMG Labtech) Platereaders.

[3] = target: T3, JARID1B (Homo sapiens, UniProt Q9UGL1); experiment: FLAG-JARID1B histone demethylase assay with AlphaScreen detection (HTS and dose response); format: biochemical;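 further: FLAG-tagged JARID1B at 4 nM acting on a biotinylated H3K4me3 peptide, demethylation read by AlphaScreen luminescence, with hits checked against bio-H3K4me2 without enzyme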
T3 construct: The FLAG tagged full length JARID1B enzyme was expressed in Sf21 insect cells using FLAG-JARID1B baculoviruses; FLAG (N); made in house; host or cells: Sf21 insect cells (baculovirus)
T3 sequence (Q9UGL1 whole entry): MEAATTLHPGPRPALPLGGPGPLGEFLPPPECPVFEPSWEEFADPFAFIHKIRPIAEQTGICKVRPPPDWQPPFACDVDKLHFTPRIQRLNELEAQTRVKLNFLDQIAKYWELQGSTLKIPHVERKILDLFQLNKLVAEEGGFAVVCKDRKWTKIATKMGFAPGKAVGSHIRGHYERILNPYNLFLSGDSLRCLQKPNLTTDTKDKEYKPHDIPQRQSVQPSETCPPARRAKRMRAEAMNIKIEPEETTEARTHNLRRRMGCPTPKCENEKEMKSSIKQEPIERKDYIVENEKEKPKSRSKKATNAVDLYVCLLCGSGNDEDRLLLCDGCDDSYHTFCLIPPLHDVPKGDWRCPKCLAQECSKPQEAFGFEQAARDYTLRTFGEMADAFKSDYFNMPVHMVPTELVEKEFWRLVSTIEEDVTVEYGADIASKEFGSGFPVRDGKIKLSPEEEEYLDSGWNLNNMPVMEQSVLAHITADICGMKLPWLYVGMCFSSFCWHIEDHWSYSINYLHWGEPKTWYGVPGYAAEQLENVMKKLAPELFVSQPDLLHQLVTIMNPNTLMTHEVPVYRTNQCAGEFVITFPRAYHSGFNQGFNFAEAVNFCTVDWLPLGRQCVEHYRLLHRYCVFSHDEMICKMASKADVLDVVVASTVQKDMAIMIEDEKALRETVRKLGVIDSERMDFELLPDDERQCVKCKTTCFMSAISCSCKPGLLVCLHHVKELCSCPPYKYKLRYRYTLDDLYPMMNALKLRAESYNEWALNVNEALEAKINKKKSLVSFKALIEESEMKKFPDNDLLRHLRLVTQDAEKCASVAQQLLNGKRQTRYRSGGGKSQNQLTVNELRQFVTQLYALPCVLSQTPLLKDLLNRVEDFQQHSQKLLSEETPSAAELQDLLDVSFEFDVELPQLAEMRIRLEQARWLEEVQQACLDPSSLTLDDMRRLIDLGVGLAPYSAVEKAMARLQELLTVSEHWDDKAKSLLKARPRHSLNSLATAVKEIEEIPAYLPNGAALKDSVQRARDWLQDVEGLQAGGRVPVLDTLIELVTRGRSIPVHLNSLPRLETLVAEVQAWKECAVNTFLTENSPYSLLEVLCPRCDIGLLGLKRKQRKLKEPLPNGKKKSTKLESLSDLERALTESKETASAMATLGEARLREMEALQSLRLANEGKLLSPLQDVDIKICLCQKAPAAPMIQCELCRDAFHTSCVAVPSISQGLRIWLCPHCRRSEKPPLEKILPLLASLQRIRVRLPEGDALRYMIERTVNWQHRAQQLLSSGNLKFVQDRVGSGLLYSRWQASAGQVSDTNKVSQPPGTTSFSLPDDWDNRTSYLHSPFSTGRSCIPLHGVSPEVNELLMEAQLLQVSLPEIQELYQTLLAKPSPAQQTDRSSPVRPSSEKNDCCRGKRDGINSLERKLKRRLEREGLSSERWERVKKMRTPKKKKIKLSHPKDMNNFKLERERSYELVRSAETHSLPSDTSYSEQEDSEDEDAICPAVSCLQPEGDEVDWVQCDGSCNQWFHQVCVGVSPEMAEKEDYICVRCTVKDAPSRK

[4] = system: HeLa cells overexpressing full-length JARID1B; experiment: H3K4me3 immunofluorescence in cells overexpressing 3xHA-JARID1B; format: cell-based; settings: 10 μM or 30 μM, 24 hours
Experimental: pcDNA3.1(−)-3×HA-JARID1B construct was generated by inserting 3×HA-JARID1B between BamHI and XbaI of pcDNA3.1(−) vector. MCF7 cells were plated on 12 mm circle coverslips in 24-well plates and transfected with pcDNA3.1(−)-3×HA-JARID1B in the presence of 0, 10 or 30 μM PBIT. After incubation for 24 hours, the cells were fixed, permeabilized, and stained with antibodies against HA and H3K4me3 for 2 hours. The coverslips were then incubated with anti-mouse Alexa-546 (Invitrogen, A-11003) and goat anti-rabbit Envision (Dako, K4002) for 1 hour. Cy5-Tyramide (Perkin Elmer, NEL775001KT) and 4,6-diamidino-2-phenylindole dihydrochloride (DAPI) (Biotium, 40011) were used to visualize 3×HA-tagged JARID1B and nuclei, respectively. The slides were sealed and analyzed under an Olympus fluorescence microscope.
To determine whether JARID1B could be inhibited by PBIT in cells, HeLa cells overexpressing full-length JARID1B were treated with 10 μM or 30 μM PBIT. As expected, in JARID1B transfected cells, the levels of H3K4me3 decreased dramatically compared with untransfected cells (FIG. 5).

[5] = compound 10 μM, 64 nM bio-H3K4me3 peptide

## Cc1ccc(-n2sc3ccccc3c2=O)cc1 [PBIT, 2-4(4-methylphenyl)-1,2-benzisothiazol-3(2H)-one]
[1]
  IC50: 28 µM
[2]; [5]
  JARID1C demethylase activity: inhibited
[2]; dose response, read-out: IC50 against JARID1C
  IC50: 4.9 µM
[3]
  inhibition of JARID1B (maximum): up to 95%
[3]; Fe (II) concentration not stated, read-out: IC50 against JARID1B
  IC50: ~3 µM
[3]; [5]
  JARID1B demethylase activity: inhibited
[3]; dose response at 15 μM (low) Fe (II), read-out: IC50 (μM) low Fe (II)
  IC50: 3.17 µM
[3]; dose response at 50 μM (high) Fe (II), read-out: IC50 (μM) high Fe (II)
  IC50: 2.78 µM
[4]
  JARID1B overexpression-induced decrease of H3K4me3: prevented; also recorded: decrease was blocked

Reference: US20150272939A1, “Identification of Small Molecule Inhibitors of Jumonji AT-Rich Interactive Domain 1A (JARID1A) and 1B (JARID1B) Histone Demethylase” (Yale University, priority 2012, published 2015)
